Several values for one entry are separate records, joined by “and”; a condition that tells them apart may be missing. Equal entries are not always repeated. Where two headings read alike, the source gives them in different places.
Legend:
[1] = Bulk drug stability study of (Z)-endoxifen free base; assay type: physicochemical
Description: For bulk stability studies, ˜1 g aliquots of (Z)-endoxifen free base were placed inside individually in double LDPE bags tied with a nylon cable tie. The LDPE bags were then placed in aluminum foil bags and thermally sealed. The samples for stability were placed in tightly capped, 180 mL HDPE bottles under inert conditions (dry nitrogen) at 5° C. and 25° C./60% RH for 12 months, and at 40° C./75% RH for 3 months. The samples were tested for (E)-endoxifen and (Z)-endoxifen concentrations and impurities, moisture or water content by Karl Fischer titration, aerobic bacterial colony forming units and appearance at time points day 0, 10 days, 1 m and 3 m. Table 13 below provides bulk drug stability data at 9 m on endoxifen free base at varying storage conditions.

[2] = cited from earlier work
[3] = Accelerated 10-day stability study of solid (Z)-endoxifen free base (E/Z by HPLC); assay type: physicochemical; conditions: for (E)-endoxifen content / (Z)-endoxifen content / E/Z ratio / Total Impurity: solid
Description: HPLC-UV analyses of the samples was carried out using a Luna phenyl-hexyl column (4.6 mm×150 mm×3 μm of particle size). The column temperature was 40° C. and sample compartment temperature was maintained at ambient temperature. Samples were prepared by dissolving solids and filtrates at 0.2 mg/ml of sample in methanol as sample buffer. Samples were then injected into the column in an injection volume of 20 μl. Likewise, mildly acidic (pH 4.3) ammonium formate buffer/methanol in the mobile phase with gradient elution was used. Mobile phase system consisting of: Mobile Phase A (MPA) buffer was 10 mM HCOONH4 with 0.03% HCOOH buffer in water, and Mobile Phase B (MBP) buffer was 10 mM HCOONH4 in methanol with a gradient program used.
The run time was 30 m, the flow rate was 1.0 mL/m, and the delay time was 5 m. Samples were detected by UV detection at 243 nm. Retention times were typically from 12.95 to 13.20 m for (E)-endoxifen and from 14.0 to 14.33 m for (Z)-endoxifen. Relative Retention Time (RRT) for (E)-endoxifen was […] and 1.0 for (Z)-endoxifen.
The stability of (Z)-endoxifen free base Sample 1 of Table 11 was studied when stored at various temperatures in solid form and in ethanol (EtOH) solution. The (E)-endoxifen and (Z)-endoxifen levels were measured on days 2, 7 and 10 following placement of 1 g aliquots of purified (Z)-endoxifen free base in 180 mL HDPE bottles under dry N2, which were then placed in double LDPE bags. The double bagged HDPE bottles containing each sample were individually packed in aluminum foil bags and thermally sealed until they were opened for testing the stability of the samples. The (E)- and (Z)-isomers of endoxifen were monitored by HPLC as disclosed above. The purity of (Z)-endoxifen in solid form remained at about 97% at 40° C., 60° C., and 80° C. up to 10 days.

[4] = Comparison of (Z)-endoxifen concentrations (oral) with published literature (Table 22); assay type: in vivo

## CC/C(=C(\c1ccc(O)cc1)c1ccc(OCCNC)cc1)c1ccccc1 [(Z)-Endoxifen, (Z)-4-(1-(4-(2-(methylamino)ethoxy)phenyl)-2-phenylbut-1-enyl) phenol]
[1]; 40° C./75% RH
  time for which stable: at least 3 months
[1]; Storage 5° C.
  (Z)-endoxifen USP <921≥ Plate Count: 13990 cfu g/mL
[1]; Storage 5° C., 0 m
  (E)-endoxifen content: 0.19%
  (Z)-endoxifen % Purity: 99.5%
  Max Indiv. Impurity: 0.11%
  Water content (Karl Fischer): 0.06%
[1]; Storage 5° C., 3 m
  (E)-endoxifen content: 0.17%
  (Z)-endoxifen % Purity: 99.6%
  Max Indiv. Impurity: 0.10%
  Water content (Karl Fischer): 0.05%
[1]; Storage 5° C., 6 m
  (E)-endoxifen content: 0.18%
  (Z)-endoxifen % Purity: 99.5%
  Max Indiv. Impurity: 0.11%
  Water content (Karl Fischer): 0.05%
[1]; Storage 5° C., 9 m
  (E)-endoxifen content: 0.19%
  (Z)-endoxifen % Purity: 99.5%
  Max Indiv. Impurity: 0.11%
  Water content (Karl Fischer): 0.05%
[1]; Storage 25° C./60% RH
  (Z)-endoxifen USP <921≥ Plate Count: 14030 cfu g/mL
[1]; Storage 25° C./60% RH, 0 m
  (E)-endoxifen content: 0.19%
  (Z)-endoxifen % Purity: 99.5%
  Max Indiv. Impurity: 0.11%
  Water content (Karl Fischer): 0.06%
[1]; Storage 25° C./60% RH, 3 m
  (E)-endoxifen content: 0.17%
  (Z)-endoxifen % Purity: 99.6%
  Max Indiv. Impurity: 0.11%
  Water content (Karl Fischer): 0.05%
[1]; Storage 25° C./60% RH, 6 m
  (E)-endoxifen content: 0.18%
  (Z)-endoxifen % Purity: 99.5%
  Max Indiv. Impurity: 0.11%
  Water content (Karl Fischer): 0.06%
[1]; Storage 25° C./60% RH, 9 m
  (E)-endoxifen content: 0.19%
  (Z)-endoxifen % Purity: 99.5%
  Max Indiv. Impurity: 0.11%
  Water content (Karl Fischer): 0.07%
[1]; Storage 40° C./75% RH
  (Z)-endoxifen USP <921≥ Plate Count: 13776 cfu g/mL
[1]; Storage 40° C./75% RH, 0 m
  (E)-endoxifen content: 0.19%
  (Z)-endoxifen % Purity: 99.5%
  Max Indiv. Impurity: 0.11%
  Water content (Karl Fischer): 0.06%
[1]; Storage 40° C./75% RH, 3 m
  (E)-endoxifen content: 0.17%
  (Z)-endoxifen % Purity: 99.5%
  Max Indiv. Impurity: 0.11%
  Water content (Karl Fischer): 0.07%
[1]; ambient temperature
  time for which stable: at least 9 months
[1]; solid, 5° C.
  time for which stable: at least 9 months
[1]; solid, 25° C./60% RH
  time for which stable: at least 9 months
[1]; storage conditions studied
  aerobic bacterial plate count TAC: less than 20,000 cfu g/mL
  water content: not more than 1%
[2]; oral dose 1 mg
  Published Literature Result of Average Plasma (Z)-Endoxifen Css: 12.4 ng/mL and 33.1 nM
[2]; oral dose 2 mg
  Published Literature Result of Average Plasma (Z)-Endoxifen Css: 18.6 ng/mL and 49.8 nM
[2]; oral dose 4 mg
  Published Literature Result of Average Plasma (Z)-Endoxifen Css: 56.8 ng/mL and 152.1 nM
[2]; oral dose 8 mg
  Published Literature Result of Average Plasma (Z)-Endoxifen Css: 96.8 ng/mL and 259.2 nM
[3]; 40° C., 60° C., and 80° C. up to 10 days
  purity of (Z)-endoxifen in solid form: about 97%
[3]; 40° C., 2 days
  (E)-endoxifen content: 1.27%
  (Z)-endoxifen content: 97.45%
  E/Z ratio: 1/76
  Total Impurity: 1.28%
[3]; 40° C., 7 days
  (E)-endoxifen content: 1.2%
  (Z)-endoxifen content: 97.11%
  E/Z ratio: 1/81
  Total Impurity: 1.69%
[3]; 40° C., 10 days
  (E)-endoxifen content: 1.29%
  (Z)-endoxifen content: 97.31%
  E/Z ratio: 1/75
  Total Impurity: 1.40%
[3]; 60° C., 2 days
  (E)-endoxifen content: 1.30%
  (Z)-endoxifen content: 97.43%
  E/Z ratio: 1/75
  Total Impurity: 1.27%
[3]; 60° C., 7 days
  (E)-endoxifen content: 1.17%
  (Z)-endoxifen content: 97.1%
  E/Z ratio: 1/83
  Total Impurity: 1.72%
[3]; 60° C., 10 days
  (E)-endoxifen content: 1.27%
  (Z)-endoxifen content: 97.48%
  E/Z ratio: 1/82
  Total Impurity: 1.33%
[3]; 80° C., 2 days
  (E)-endoxifen content: 1.28%
  (Z)-endoxifen content: 97.42%
  E/Z ratio: 1/76
  Total Impurity: 1.30%
[3]; 80° C., 7 days
  (E)-endoxifen content: 1.34%
  (Z)-endoxifen content: 96.92%
  E/Z ratio: 1/72
  Total Impurity: 1.74%
[3]; 80° C., 10 days
  (E)-endoxifen content: 1.27%
  (Z)-endoxifen content: 97.33%
  E/Z ratio: 1/77
  Total Impurity: 1.40%
[3]; tested temperatures up to 10 days
  interconversion of (Z)- to (E)-endoxifen in solid form: does not interconvert to (E)-endoxifen
[4]; oral dose 1 mg
  % Ratio of Css Study/Literature: 154%
  Study Result of Average Serum (Z)-Endoxifen Css: 19.1 ng/mL and 51.1 nM
[4]; oral dose 2 mg
  % Ratio of Css Study/Literature: 204%
  Study Result of Average Serum (Z)-Endoxifen Css: 38 ng/mL and 101.7 nM
[4]; oral dose 4 mg
  % Ratio of Css Study/Literature: 150%
  Study Result of Average Serum (Z)-Endoxifen Css: 85.1 ng/mL and 227.9 nM

Reference: US12275684B2, “Methods for making and using endoxifen” (Atossa Therapeutics, Inc., priority 2017, dated 2025)
